Assays:
general bacteria = assay: qRT-PCR of general bacteria 16S rRNA genes in DehaloR̂2 cultures; format: cell-based; conditions: for General bacteria 16S rRNA gene copies, day 22 / General bacteria 16S rRNA gene copies, initial: DehaloR̂2 with 1.5 μM TCC or 35 μM TCS
Method: Quantitative real-time PCR (qRT-PCR) was performed for enumeration of general 16S rRNA genes and Dehalococcoides 16S rRNA genes in culture DehaloR̂2 and Bio-Dechlor INOCULUM. The primers used for general 16S rRNA genes were Bac1055F (5′-ATG GYT GTC GTC ACCT-3′) and Bac1392R (5′-ACG GGC GGT GTG TAC-3′) (Ritalahti et al., 2006), and the probe was Bac16sTaq (FAM-CAA CGA GCG CAA CCC/3-BHQ-1/). The final volume of PCR reactions was 10 μL, and the final concentration of each chemical in a single reaction tube was: 1× RealMasterMix (Fisher Scientific, Pittsburgh, Pa.), 300 nM Probe, 300 nM each Primer, and 130 nM DNA samples. The PCR conditions were as follows: 2 min at 95° C. followed by 40 cycles of 10 s at 95° C., 20 s at 56° C. and 20 s at 68° C. The primers used for Dehalococcoides 16S rRNA genes were Dhc1200F (5′-CTGGAGCTAATCCCCAAAGCT-3′) and Dhc1271R (5′-CAA CTT CAT GCA GGC GGG-3′), and the probe was Dhc1240Pr (FAM-TCCTCAGTTCGGATTGCAGGC TGAA/3-BHQ-1) (He et al., 2003b). The final volume of PCR reactions was 10 μL, and the final concentration of each chemical in a single reaction tube was: 1× RealMasterMix (Fisher Scientific, Pittsburgh, Pa.), 200 nM Probe, 700 nM each Primer, and 130 nM DNA samples. The PCR conditions were as follows: 2 min at 95° C. followed by 40 cycles of 15 s at 95° C., 20 s at 58° C. and 20 s at 68° C.
Quantitative Real time PCR (qRT-PCR) was carried out in a spectrofluorimetric thermal cycler (Master cycler, epgradient S, Eppendorf). Calibration curves were performed in triplicate and a linear range of 6 orders of magnitude was obtained. Plasmids containing Dehalococcoides strain BAV1 16S rRNA genes were used as standards to construct general 16S rRNA genes and Dehalococcoides 16S rRNA genes calibration curves. The slopes of the calibration curves for general 16S rRNA genes and Dehalococcoides 16S rRNA genes were −3.46 and −3.94, and the Y intercepts were 38 and 44.2, respectively.
DNA Extraction and Quantitative Real-Time PCR. The BDI cultures and DehaloR^2 cultures were shaken vigorously first and then 10 ml of the mixed liquid was removed with a sterile syringe and dispensed into 10 1.5 ml micro centrifuge tubes. These micro centrifuge tubes were then centrifuged at 13,000 rpm for 15 min in order to make a pellet, and the pellet was used for DNA extraction. Qiagen DNeasy Blood & Tissue Kit with modifications to enhance lysis was used for DNA isolation from cultures. DNA samples were stored at −20° C.
Quantitative real-time PCR (qRT-PCR) was performed for enumeration of general 16S rRNA genes and Dehalococcoides 16S rRNA genes in BDI culture without TCC&TCS, BDI culture with 1.5 μM TCC, BDI culture with 35 μM TCS, D DehaloR̂2 culture without TCC&TCS, DehaloR^2 culture with 1.5 μM TCC and DehaloR̂2^2 culture with 35 μM TCS.
The primers used for general 16S rRNA genes were Bac1055F (5′-ATGGYTGTCGTCAGCT-3′) and Bac1392R (5′-ACGGGCGGTGTGTAC-3′) (Ritalahti et al., 2006), and the probe was Bac16sTaq (FAM-CAACGAGCGCAACCC/3-BHQ-1/). The final volume of PCR reactions was 10 μL, and the final concentration of each chemical in a single reaction tube was: 1× RealMasterMix (Fisher Scientific, Pittsburgh, Pa.), 300 nM Probe, 300 nM each Primer, and 130 nM DNA samples. The PCR conditions were as follows: 2 min at 95° C. followed by 40 cycles of 10 s at 95° C., 20 s at 56° C. and 20 s at 68° C.
The qRT-PCR was carried out in a spectrofluorimetric thermal cycler (Master cycler, epgradient S, Eppendorf). […]

[1] = at 25° C., pH 7; cited from earlier work

SMILES	General bacteria 16S rRNA gene copies, day 22 (general bacteria)	General bacteria 16S rRNA gene copies, initial (general bacteria)	Partition Coefficient [1]	General bacteria 16S rRNA gene copies, day 22 relative to initial (general bacteria; DehaloR̂2 with 35 μM TCS)
O=C(Nc1ccc(Cl)cc1)Nc1ccc(Cl)c(Cl)c1 [TCC, 3-(4-chlorophenyl)-1-(3,4-dichlorphenyl) urea]	1.6×10^8 gene copies/ml	1.3×10^7 gene copies/ml	4.9 Log Pow	
Oc1cc(Cl)ccc1Oc1ccc(Cl)cc1Cl [TCS, 5-chloro-2-[2,4-dichloro-phenoxy]-phenol]	7.5×10^7 gene copies/ml	2.2×10^7 gene copies/ml	4.8 Log Pow	3.5 times

Reference: patent publication US20120178147A1, “MICROBIAL CULTURES AND METHODS FOR ANAEROBIC BIOREMEDIATION” (priority 2009, published 2012)
